Assay results reported in patent US8414958B2, “Implant and method for the manufacture thereof” (Thommen Medical AG, priority 2008, dated 2013).

Columns and labels:
[1] = system: jawbones of rats; conditions: jawbone fractures, gelatin sponges; cited from earlier work
[2] = system: parietal bone of rabbits; conditions: parietal bone fractures, collagen sponges; cited from earlier work
[3] = system: tibias of rats; conditions: titanium implants in tibias, daily into the abdominal cavity; cited from earlier work
[4] = system: bones of rats; conditions: calcium sulfate carrier disks, eight weeks, compared to control group; cited from earlier work
[5] = Solubility in ethanol and ethanol/water mixtures; format: physicochemical

solubility in water	ethanol content of the ethanol/water mixture in which the substance dissolves [5]	Structure (SMILES)	bone density above that of the control group receiving no active ingredient [1]	formation of new bone in histological studies [1]	formation of new bone [2]	bone density around the implant [3]	bone density [4]	bone mineral density [4]	mineral content of the bones [4]
–	–	CCC(C)(C)C(=O)O[C@H]1C[C@@H](C)C=C2C=CC(C)[C@H](CC[C@@H]3C[C@@H](O)CC(=O)O3)[C@H]21 (stereo in doubt) [simvastatin, [(1S,3R,7R,8S,8aR)-8-[2-[(2R,4R)-4-hydroxy-6-oxo-oxan-2-yl]ethyl]-3,7-dimethyl-1,2,3,7,8,8a-hexahydronaphthalen-1-yl] 2,2-dimethylbutanoate]	190-240%	enhanced formation of new bone was detectable	accelerated formation of new bone	significant increase	significant increase	significant increase	significant increase
water-soluble	25 % ethanol	CCC(C)(C)C(=O)O[C@H]1C[C@@H](C)C=C2C=C[C@H](C)[C@H](CC[C@@H](O)C[C@@H](O)CC(=O)O)[C@H]21 [open-chain acid form of simvastatin]	–	–	–	–	–	–	–
